Measured values reported in paper PMC6326523, “A high-throughput screen to identify novel small molecule inhibitors of the Werner Syndrome Helicase-Nuclease (WRN)” (PLoS ONE, 2019).

Legend:
[1] = molecular target: T1, GST-WRN500-946 helicase domain fragment (Homo sapiens, UniProt Q14191); test: Confirmatory fluorometric helicase screen, PubChem AID 720497; format: biochemical; details: 20 nM GST-WRN500-946, 100 nM FORKF, NA = Not Active, read-out: IC50 (μM) Assay ID 720497
T1 construct: made in house; host or cells: insect cells
Description: The structures of the members of this collection are available in the PubChem portal https://pubchem.ncbi.nlm.nih.gov/. For both the 350,000 small molecule collection and the LOPAC^1280 screens, 3 μL of GST-WRN500-946 or reaction buffer only were dispensed using a solenoid-valve nanoliter dispenser into a black 1536-well plate (Greiner). Twenty three nL of each serially diluted compound (0.08–50 μM for the LOPAC screen and 0.003–114 μM for the larger library screen) or control were added to each well using a Kalypsys pintool equipped with a 1536-pin array. Plates were incubated at room temperature for 15 min, followed by initiation of the reactions via the addition of 1 μL of substrate (100 nM FORKF and 2 mM ATP final concentrations). Plates were transferred to a ViewLux high-throughput CCD imager and fluorescence was measured in kinetic mode using an excitation filter of 525 nm and emission filter of 598 nm.
Zʹ factor, a measure for assay quality control was calculated using the formula Z′ = 1−(3σS^++3σS^−)∕|μS^+−μS^−| as described previously. In this formula, 3σS^+ represents 3 standard deviations from the mean of positive signals while 3σS^− represents 3 standard deviations from the mean of negative signals. μS^+ and μS^− represent the mean of positive signals and negative signals respectively. Percent activity was derived using in-house software (http://tripod.nih.gov/curvefit/). Dose-response curves were classified as described previously.
A collection of approximately 350,000 compounds is available for screening which has been assembled from multiple sources to provide diverse chemical scaffolds with known purity, identity and solubility. To perform the high-throughput screen of these compounds, we needed to produce approximately 50 milligrams of recombinant WRN helicase fragment. To accomplish this, we cloned the helicase domain fragment into several plasmids for either insect cell or bacterial expression to optimize expression and yield. We selected expression plasmids for insect cell expression with either a GST or MBP tag (image A in S1 Fig) and purified the protein (image B in S1 Fig). The GST-WRN500-946 fragment isolated from insect cells was used in the high throughput screen with the conditions described in Fig 2C (20 nM GST-WRN500-946, 100 nM FORKF DNA substrate) and a summary of the results can be found on PubChem (National Center for Biotechnology Information. PubChem BioAssay Database; Assay Identifier (AID) = 651768, https://pubchem.ncbi.nlm.nih.gov/bioassay/651768). […] To verify the active compounds, approximately 600 hit molecules were retested in a confirmatory screen also found on PubChem (National Center for Biotechnology Information. PubChem AID = 720497, https://pubchem.ncbi.nlm.nih.gov/bioassay/720497). Of these, a little less than four hundred compounds were confirmed as active compounds.

HeLa 1.2.11 cells = test: HeLa cell proliferation assay (WST-1); format: cell-based, human; details: 50 μM, 3-day time course
Description: WRN inhibitors were diluted in DMSO to a concentration 100-fold higher than their final concentrations. U2-OS cells in culture were counted, spun down and resuspended to 35,000 cells/mL in DMEM with 10% FBS and Pen/Strep antibiotic. For each cell condition, 15 μL of DMSO or inhibitor was added to 1.5 ml of U2-OS cells in DMEM or DMEM alone. One hundred μL of each cell condition was plated in triplicate on each of four 96-well plates representing days 0–3. Ten μL of WST-1 cell proliferation reagent (Roche) was added to the day 0 plate and readings were taken 2 hr later using a plate reader set to 450 nm. WST-1 cell proliferation reagent was added to plates on days 1–3 and readings were taken after 2 hr incubation. Percent cell proliferation was normalized to cells in the presence of DMSO with the background OD450 of DMEM with each drug subtracted out. […]
Fig 9 Effects of WRN helicase inhibitors on cancer cell proliferation. (A) Cell proliferation of HeLa 1.2.11 cells treated with 50 μM NCGC00029283-03, NCGC00063279-03, NCGC00357377-01 and NSC 617145 (positive control) or vehicle (DMSO) on Day 0 and Day 3 as measured using the WST-1 cell proliferation reagent. […]

[2] = system: Hematopoietic Protein Tyrosine Phosphatase (HePTP); design: method as in PMID 22070201; details: separate high-throughput screen; cited from earlier work
polymerases = system: polymerases; design: method as in PubChem; details: review of PubChem data from previously-conducted screens; ref PubChem; cited from earlier work
BLM helicase fragment = system: BLM helicase fragment; design: method as in PubChem; details: review of PubChem data from previously-conducted screens; ref PubChem; cited from earlier work

T1 sequence (Q14191 500-946): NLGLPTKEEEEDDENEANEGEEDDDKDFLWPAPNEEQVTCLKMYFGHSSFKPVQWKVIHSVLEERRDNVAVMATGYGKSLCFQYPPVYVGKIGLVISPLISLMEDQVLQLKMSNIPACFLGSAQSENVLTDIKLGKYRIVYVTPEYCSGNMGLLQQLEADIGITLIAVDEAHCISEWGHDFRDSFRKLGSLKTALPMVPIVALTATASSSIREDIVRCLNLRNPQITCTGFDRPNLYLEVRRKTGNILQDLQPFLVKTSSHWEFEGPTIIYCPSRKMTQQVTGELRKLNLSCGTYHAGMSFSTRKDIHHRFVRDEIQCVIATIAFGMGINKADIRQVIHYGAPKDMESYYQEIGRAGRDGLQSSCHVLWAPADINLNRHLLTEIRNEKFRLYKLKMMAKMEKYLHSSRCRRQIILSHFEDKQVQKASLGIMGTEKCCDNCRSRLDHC

SMILES | IC50 [1] [µM] | Effect on HeLa 1.2.11 cell proliferation (HeLa 1.2.11 cells) | Inhibition of HePTP [2] | Activity against polymerases in high-throughput screens (polymerases) | Activity against BLM helicase fragment in high-throughput screens (BLM helicase fragment)
Cc1ccc(-c2csc(NS(=O)(=O)c3cccc(F)c3)n2)o1 [MLS002251300-02] | 24.1 | did not reduce cell proliferation | – | – | –
COc1ccc2nc(O)c(-c3noc(-c4ccc(F)cc4)n3)cc2c1 [NCGC00029283-02] | – | – | inhibited | some activity | no activity
COc1ccc2nc(O)c(-c3noc(-c4ccccc4)n3)cc2c1 [NCGC00063279-02] | 21.5 | – | inhibited | some activity | no activity
